US9597407B2, “Targeted antimicrobial moieties” (C3 Jian, Inc., priority 2009, dated 2017)
Entries after “also recorded” stand apart in the source; their conditions may differ. Ends that are not written are not given here.

Columns and labels:
microorganisms = test: Morphology, biofilm and growth disruption by peptides (Table 5); type: cell-based; design: key: A: Peptide aggregates; B: Less hyphal formation; Clumps; Diffuse clumps and small polyps; F: Diffuse growth; H: Thin; I: Growth inhibition; Microcolony formation; Rippled; Small polyps; Thick; W: Halo formation on top, microlonies on bottom
From the text: In certain embodiments peptides that induce alterations in phenotype or other biological activities can also be used as antimicrobial effector moieties.

bacteria = test: Binding of targeting peptides to microorganisms (Table 3); settings: preferably 1x PBS; for Target(s) (microorganism bound by the targeting peptide) / Target(s) (microorganisms bound by the targeting peptide): peptide binding in aqueous buffers that varied depending on peptide solubility
[1] = microorganism bound by the targeting peptide, binding in aqueous buffers chosen by peptide solubility
[2] = microorganism the targeting peptide binds, binding in aqueous buffers that varied with peptide solubility

Substance: PF-224 (DYFYITLSQKNTF; Peptide with targeting and/or antimicrobial activity)
- Organism, effect (microorganisms; M. luteus): M. luteus (T)
- Target(s) (bacteria; [1]): S. epidermidis; also recorded: P. aeruginosa; also recorded: A. baumannii

Substance: PF-171 (TQVTLCRTW; Peptide with targeting and/or antimicrobial activity)
- Organism, effect (microorganisms; B. subtilis): B. subtilis (D)
- Organism, effect (microorganisms; C. jejuni): C. jejuni (R)
- Organism, effect (microorganisms; M. luteus): M. luteus (R)
- Organism, effect (microorganisms; MRSA): MRSA (M)
- Organism, effect (microorganisms; S. epidermidis): S. epidermidis (R)
- Organism, effect (microorganisms; S. pneumoniae): S. pneumoniae (D)
- Target(s) (bacteria; [1]): S. epidermidis; also recorded: E. coli; also recorded: P. aeruginosa; also recorded: S. pneumoniae

Substance: PF-009 (chain 1 SKKYNHILNQENR; chain 2 SKKYNHILNQENR; Peptide with targeting and/or antimicrobial activity)
- Organism, effect (microorganisms; S. epidermidis): S. epidermidis (S)
- Target(s) (bacteria; [2]): M. luteus; also recorded: P. mirabilis; also recorded: C. albicans

Substance: PF-129 (MKLLARDPWVCAWNDIW; Peptide with targeting and/or antimicrobial activity)
- Organism, effect (microorganisms; C. jeikeium): C. jeikeium (R)
- Organism, effect (microorganisms; S. epidermidis): S. epidermidis (M)
- Target(s) (bacteria; [1]): S. epidermidis and MRSA and E. faecalis and C. jeikeium and C. jejuni

Substance: PF-690 (chain 1 MIPLAGDPVSSHRTVEFGVLGTYLVSGGSL; chain 2 MIPLAGDPVSSHRTVEFGVLGTYLVSGGSL; Peptide with targeting and/or antimicrobial activity)
- Organism, effect (morphology, biofilm and growth disruption) (microorganisms; E. faecalis): E. faecalis (R)
- Organism, effect (morphology, biofilm and growth disruption) (microorganisms; MRSA): MRSA (R)
- Organism, effect (morphology, biofilm and growth disruption) (microorganisms; S. epidermidis): S. epidermidis (R)
- Organism, effect (morphology, biofilm and growth disruption) (microorganisms; S. pneumoniae): S. pneumoniae (M)
- Target(s) (microorganism bound by the targeting peptide) (bacteria): Mycobacteria spp

Substance: PF-C069 (NALMLREMQLAKNIKVEVTDVLSNKKYC; Peptide with targeting and/or antimicrobial activity)
- Organism, effect (morphology, biofilm and growth disruption) (microorganisms; F. nucleatum): F. nucleatum (T)
- Target(s) (microorganism bound by the targeting peptide) (bacteria): A. naeslundii; also recorded: F. nucleatum; also recorded: P. gingivalis; also recorded: S. mutans; also recorded: T. denticola

Substance: LSEMERRRLRKRA-NH2 [PF-529]
- Organism, effect (morphology, biofilm and growth disruption) (microorganisms; S. pneumoniae): S. pneumoniae (H)
- Target(s) (microorganisms bound by the targeting peptide) (bacteria): S. epidermidis and E. coli and C. albicans and MRSA and S. pneumoniae and E. faecalis and C. jeikeium

Substance: MGIIAGIIKFIKGLIEKFTGK [PF-006]
- Organism, effect (microorganisms; B. subtilis): B. subtilis (I)
- Organism, effect (microorganisms; C. jejuni): C. jejuni (D)
- Organism, effect (microorganisms; M. luteus): M. luteus (A)
- Organism, effect (microorganisms; MRSA): MRSA (I)
- Organism, effect (microorganisms; S. epidermidis): S. epidermidis (D)
- Organism, effect (microorganisms; S. pneumoniae): S. pneumoniae (R)
- Target(s) (bacteria; [2]): S. epidermidis and M. luteus and E. coli and P. aeruginosa and MRSA and E. faecalis and C. jeikeium and C. jejuni

Substance: PF-596 (SKMWDKILTILILILELIRELIKL; Peptide with targeting and/or antimicrobial activity)
- Organism, effect (morphology, biofilm and growth disruption) (microorganisms; C. jejuni): C. jejuni (D)
- Organism, effect (morphology, biofilm and growth disruption) (microorganisms; E. coli): E. coli (C)
- Organism, effect (morphology, biofilm and growth disruption) (microorganisms; E. faecalis): E. faecalis (D)
- Organism, effect (morphology, biofilm and growth disruption) (microorganisms; MRSA): MRSA (D)
- Organism, effect (morphology, biofilm and growth disruption) (microorganisms; S. epidermidis): S. epidermidis (D)
- Organism, effect (morphology, biofilm and growth disruption) (microorganisms; S. pneumoniae): S. pneumoniae (D)
- Target(s) (microorganisms bound by the targeting peptide) (bacteria): S. epidermidis and M. luteus and P. mirabilis and E. coli and P. aeruginosa and MRSA and E. faecalis

Substance: FELVDWLETNLGKILKSKSA-NH2 [PF-522]
- Organism, effect (morphology, biofilm and growth disruption) (microorganisms; S. pneumoniae): S. pneumoniae (H)
- Target(s) (microorganisms bound by the targeting peptide) (bacteria): S. epidermidis; also recorded: E. coli; also recorded: P. aeruginosa; also recorded: S. pneumoniae; also recorded: E. faecalis

Substance: PF-590 (YYQAKLFPLL; Peptide with targeting and/or antimicrobial activity)
- Organism, effect (morphology, biofilm and growth disruption) (microorganisms; C. jejuni): C. jejuni (R)
- Target(s) (microorganisms bound by the targeting peptide) (bacteria): S. epidermidis; also recorded: M. luteus; also recorded: E. coli; also recorded: E. faecalis; also recorded: C. jeikeium

Substance: LIQKGLNQTFIVVIRLNNFIKKS [PF-013]
- Organism, effect (microorganisms; C. jeikeium): C. jeikeium (D)
- Organism, effect (microorganisms; M. luteus): M. luteus (D)
- Organism, effect (microorganisms; MRSA): MRSA (R)
- Organism, effect (microorganisms; S. epidermidis): S. epidermidis (C)
- Target(s) (bacteria; [2]): M. luteus and P. mirabilis and E. coli and P. aeruginosa and MRSA and S. pneumoniae and C. jeikeium and C. jejuni

Substance: PF-002 (chain 1 NDDAQ; chain 2 NDDAQ; Peptide with targeting and/or antimicrobial activity)
- Organism, effect (microorganisms; B. subtilis): B. subtilis (R)
- Organism, effect (microorganisms; S. pneumoniae): S. pneumoniae (H)
- Target(s) (bacteria; [2]): S. epidermidis; also recorded: P. mirabilis; also recorded: C. albicans; also recorded: C. jeikeium; also recorded: C. jejuni

Substance: PF-C145 (YGKESDP; Peptide with targeting and/or antimicrobial activity)
- Organism, effect (morphology, biofilm and growth disruption) (microorganisms; F. nucleatum): F. nucleatum (C)
- Organism, effect (morphology, biofilm and growth disruption) (microorganisms; S. mutans): S. mutans (I)
- Target(s) (microorganism bound by the targeting peptide) (bacteria): A. naeslundii; also recorded: F. nucleatum; also recorded: P. gingivalis; also recorded: S. mutans; also recorded: T. denticola

Substance: HCVIGNVVDIANLLKRRAVYRDIADVIKMR [PF-071]
- Organism, effect (microorganisms; B. subtilis): B. subtilis (D)
- Organism, effect (microorganisms; C. albicans): C. albicans (B)
- Organism, effect (microorganisms; C. jejuni): C. jejuni (A)
- Organism, effect (microorganisms; M. luteus): M. luteus (R)
- Organism, effect (microorganisms; MRSA): MRSA (C)
- Organism, effect (microorganisms; S. epidermidis): S. epidermidis (R)
- Organism, effect (microorganisms; S. pneumoniae): S. pneumoniae (A)
- Target(s) (bacteria; [2]): S. epidermidis and E. coli and P. aeruginosa and C. albicans and MRSA

Substance: PF-677 (chain 1 TCRGAGMH; chain 2 TCRGAGMH; Peptide with targeting and/or antimicrobial activity)
- Organism, effect (morphology, biofilm and growth disruption) (microorganisms; E. faecalis): E. faecalis (R)
- Organism, effect (morphology, biofilm and growth disruption) (microorganisms; MRSA): MRSA (D)
- Organism, effect (morphology, biofilm and growth disruption) (microorganisms; S. epidermidis): S. epidermidis (R)
- Organism, effect (morphology, biofilm and growth disruption) (microorganisms; S. pneumoniae): S. pneumoniae (D)
- Target(s) (microorganism bound by the targeting peptide) (bacteria): Mycobacteria spp

Substance: PF-003 (chain 1 MNNWIKVAQISVTVINEVIDIMKEKQNGGK; chain 2 MNNWIKVAQISVTVINEVIDIMKEKQNGGK; Peptide with targeting and/or antimicrobial activity)
- Organism, effect (microorganisms; C. jeikeium): C. jeikeium (A)
- Organism, effect (microorganisms; M. luteus): M. luteus (A)
- Organism, effect (microorganisms; MRSA): MRSA (R)
- Organism, effect (microorganisms; S. epidermidis): S. epidermidis (D)
- Target(s) (bacteria; [2]): S. epidermidis and M. luteus and P. mirabilis and C. albicans and MRSA and C. jeikeium

Substance: PF-C136 (LILSYQASVYPLFAYLCQQKDY; Peptide with targeting and/or antimicrobial activity)
- Organism, effect (morphology, biofilm and growth disruption) (microorganisms; F. nucleatum): F. nucleatum (C)
- Organism, effect (morphology, biofilm and growth disruption) (microorganisms; P. gingivalis): P. gingivalis (R)
- Target(s) (microorganism bound by the targeting peptide) (bacteria): A. naeslundii; also recorded: F. nucleatum; also recorded: P. gingivalis; also recorded: S. mutans; also recorded: T. denticola

Substance: VWENRKKYLENEIERHNVFLKLGQEVIKGLNALASRGR [PF-257]
- Organism, effect (microorganisms; M. luteus): M. luteus (R)
- Target(s) (bacteria; [1]): S. epidermidis

Substance: PF-642 (chain 1 FTTPMIGIPAGLLGGSYYLKRREEKGK; chain 2 FTTPMIGIPAGLLGGSYYLKRREEKGK; Peptide with targeting and/or antimicrobial activity)
- Organism, effect (morphology, biofilm and growth disruption) (microorganisms; MRSA): MRSA (M)
- Target(s) (microorganism bound by the targeting peptide) (bacteria): M. luteus and MRSA and C. jeikeium

Substance: PF-691 (chain 1 HRTVEFGVLGTYLVSGGSL; chain 2 HRTVEFGVLGTYLVSGGSL; Peptide with targeting and/or antimicrobial activity)
- Organism, effect (morphology, biofilm and growth disruption) (microorganisms; S. pneumoniae): S. pneumoniae (R)
- Target(s) (microorganism bound by the targeting peptide) (bacteria): Mycobacteria spp

Substance: PF-645 (chain 1 SNSVQQG; chain 2 SNSVQQG; Peptide with targeting and/or antimicrobial activity)
- Organism, effect (morphology, biofilm and growth disruption) (microorganisms; C. albicans): C. albicans (B)
- Organism, effect (morphology, biofilm and growth disruption) (microorganisms; S. pneumoniae): S. pneumoniae (I)
- Target(s) (microorganism bound by the targeting peptide) (bacteria): Mycobacteria spp

Substance: PF-663 (chain 1 ATLIPRKA; chain 2 ATLIPRKA; Peptide with targeting and/or antimicrobial activity)
- Organism, effect (morphology, biofilm and growth disruption) (microorganisms; S. pneumoniae): S. pneumoniae (A)
- Target(s) (microorganism bound by the targeting peptide) (bacteria): Mycobacteria spp

Substance: PF-661 (chain 1 PDEDIRRRAILPPAGPCRPMSPE; chain 2 PDEDIRRRAILPPAGPCRPMSPE; Peptide with targeting and/or antimicrobial activity)
- Organism, effect (morphology, biofilm and growth disruption) (microorganisms; MRSA): MRSA (R)
- Target(s) (microorganism bound by the targeting peptide) (bacteria): Mycobacteria spp

Substance: MKRRRCNWCGKLFYLEEKSKEAYCCKECRKKAKKVKK [PF-307]
- Organism, effect (microorganisms; B. subtilis): B. subtilis (H)
- Organism, effect (microorganisms; C. albicans): C. albicans (B)
- Organism, effect (microorganisms; S. epidermidis): S. epidermidis (T)
- Target(s) (bacteria; [1]): S. epidermidis; also recorded: B. subtilis; also recorded: B. fragilis; also recorded: C. difficile

Substance: PF-C180 (TVEELDKAFTWGAAAALAIGVIAINVGLAAGYCYNNNDVF; Peptide with targeting and/or antimicrobial activity)
- Organism, effect (morphology, biofilm and growth disruption) (microorganisms; P. gingivalis): P. gingivalis (R)
- Organism, effect (morphology, biofilm and growth disruption) (microorganisms; S. mutans): S. mutans (S)
- Target(s) (microorganism bound by the targeting peptide) (bacteria): F. nucleatum; also recorded: P. gingivalis; also recorded: S. mutans; also recorded: T. denticola
